Entries after “also recorded” stand apart in the source; their conditions may differ.
Assays:
[1] = Body weight and toxicity during BrdU administration (p.o. drinking water vs i.p.); assay type: in vivo
[2] = tested on: colon epithelial cells (CECs); test: Flow cytometric (FACS) analysis of BrdU labeled colon epithelial cell nuclei; assay type: in vivo, Fisher 344 rats; conditions: for BrdU+ cells in proliferative fraction of the crypt: FACS
Procedure: For BrdU labeling, rats received BrdU in drinking water at 1 mg/ml. Glucose (1 g/100 ml) was added to the water to mask the taste of BrdU. BrdU was added to the water, then the bottle was shaken. Next, glucose was added and the bottle was vigorously shaken to dissolve BrdU completely. It took approximately 1-2 min for BrdU to dissolve completely. It was important to prepare BrdU drinking water freshly everyday during the feeding period.
Colon was excised fresh at necropsy. Feces were removed with 0.015M NaCl solution with 0.001M dithiothreitol (DTT) and the colon was placed in cold, 1.6% Joklik's modified medium (JMMEM, Gibco Invitrogen, Grand Island, N.Y.) for 120 minutes. CECs from different proliferative fractions of the crypt were separated sequentially using the nonenzymatic, mechanical dissociation method described elsewhere. CEC from different crypt fractions (basal proliferative fraction and top mature fraction) were collected by incubating the colon sac filled with PBS buffers containing chelating agents. The tissue was shaken in a 37° C. water bath for 20 minutes, then 15 minutes and 30 minutes for collecting CECs from top, middle and the basal fractions, respectively. The middle fraction (transitional fraction) was discarded. The collected CECs were then separated from intraepithelial lymphocytes and other contaminants by applying to a discontinuous Percoll (Amersham Biosciences, Uppsala, Sweden) gradient centrifugation, with 45% Percoll overlaid on 75% Percoll. CEC from the proliferative fraction (the base of the crypts) were collected and used for FACS and GC/MS analysis since LRCs are known to be located at this region. The CECs from the mature (top) fractions from the rats that were given ^2H2O for 2-3 weeks were used as fully turned over CECs to represent the maximal ^2H labeling in DNA. A part of the distal and proximal colon was used for immunohistochemistry.
The staining protocol was as described elsewhere, and was modified for CECs. The CECs were separated from colon (as described above) and filtered through a Falcon tube 2235. The cells were then fixed with ice cold 95% ethanol while vortexing, centrifugated at 800 g for 3 minutes and washed in cold PBS (without Ca^++ and Mg^++) once. […] Two million cells were washed of ethanol in 150 ul of PBS, incubated in 1% NP 40 (Sigma) solution in the refrigerator for 30 minutes, centrifugated at 10,000 g, and the pellet was collected and washed in PBS. Two million CEC nuclei were added to each well in 96 well plates (round bottom), then 150 ul of 1% paraformaldehyde with 0.01% Tween 20 in PBS was added for additional fixation and permeabilization. The cells were kept at room temperature for 30 minutes then at 4° C. for 15 minutes, prior to centrifugation at 800 g for 3 minutes and washing in cold PBS once. Next, 150 μl of DNase I (50 kunits/ml) was added at room temperature for 15 minutes to allow denaturation of nuclear DNA. […] For negative controls, an equal concentration of mouse IgG1 FITC isotype control antibodies (Becton Dickinson, Cat 349041) were used to correct for background fluorescence. […]
At the end of each BrdU labeling period (0 week delabed), we analyzed the percent of BrdU positive cells from the proliferative fraction of the crypt (where LRCs have previously been located). This maximal BrdU labeled sample was analyzed to confirm the efficacy of BrdU administration. […]

CEC = CEC proliferation rates of BrdU treated vs control rats (preliminary study); assay type: in vivo; conditions: data not shown
Excerpt: There have been reports on the inhibitory effects of BrdU on cell proliferation and differentiation in vitro and in vivo at various concentrations and in various cell types. Since BrdU toxicity is strain and cell type specific, we cannot completely assess possible toxic effects from BrdU on the proliferation of LRCs.

[3] = Body water ^2H2O enrichment by GC/MS during ^2H2O administration; assay type: in vivo, Fisher 344 rats; conditions: for Body Water ^2H2O Enrichment: 8% ^2H2O drinking water
Procedure: Rats were primed with 99.9% ^2H2O i.p. at the start of the ^2H2O labeling period. The volume injected was 4% of the estimated body water volume. Then they were maintained on 8% ^2H2O enriched drinking water ad libitum for up to 8 weeks (19).
Body water enrichments were measured by a gas chromatographic/mass spectrometer (GC/MS) technique that we have described previously.
Body water ^2H2O enrichments were measured from plasma obtained from rats sacrificed at each time point. Achievement of plateau ^2H enrichments in body water during long-term ^2H2O administration is desirable because it signifies a stable DNA synthesis precursor enrichment for labeling of DNA. Body water enrichment from rats that were on ^2H2O for 2-8 weeks reached expected values and remained at those plateau levels (3.9-4.3%) throughout the study (FIG. 3).

With `O=c1[nH]c(=O)n([C@H]2C[C@H](O)[C@@H](CO)O2)cc1Br` [BrdU, bromodeoxyuridine] the “Toxicity or weight loss” value ([1]; BrdU 1 mg/ml in drinking water, long-term) was “did not cause any detectable toxicity or weight loss”, the “Toxicity (body weight)” value ([1]; BrdU i.p., repeated injections once a day for 8 days) was “caused toxicities; also recorded: caused weight loss; also recorded: toxicities were observed” and the “BrdU+ cells in proliferative fraction, mean±SD over labeling periods” value ([2]; 0 week delabeled, mean of 2, 4 and 8 weeks BrdU p.o.) was 77±12%. For the same compound, the “BrdU positive cells after 4 and 8 weeks of BrdU administration” value ([2]; 4 and 8 weeks BrdU p.o.) was 65-77%, the “BrdU+ cells in proliferative fraction of the crypt” value ([2]; after 4 weeks BrdU p.o., 0 week delabeled) was 65% and the “BrdU+ cells in proliferative fraction of the crypt” value ([2]; after 8 weeks BrdU p.o., 0 week delabeled) was 77%. For the same compound, the “BrdU incorporation / fluorescence of CEC, i.p. vs p.o.” value ([2]; repeated i.p. injection once a day for 8 days compared with p.o. drinking water) was “more BrdU incorporation and thus higher fluorescence” and the “CEC proliferation rates vs control rats” value (CEC) was “same CEC proliferation rates as the control rats”.
With `[2H]O[2H]` [^2H2O, deuterated water] the “Body Water ^2H2O Enrichment” value ([3]; Week 1 of ^2H2O administration) was 4.29, the “Body Water ^2H2O Enrichment” value ([3]; Week 3 of ^2H2O administration) was 3.93 and the “Body Water ^2H2O Enrichment” value ([3]; Week 4 of ^2H2O administration) was 4.30. The “Delabeling time for ^2H2O to be almost completely washed out of the body water pool” value ([3]; after stopping ^2H2O intake, found previously in applicant's lab) was “less than 1 week”, the “Body water enrichment, plateau levels” value ([3]; rats on ^2H2O for 2-8 weeks, measured from plasma) was 3.9-4.3% and the “Body water enrichment maintained throughout the study” value ([3]; throughout the study) was 4.2±0.2 % of total body water.

— US20030224420A1, “Method for isolating and measuring proliferation of long-term label retaining cells and stem cells” (priority 2002, published 2003)
